Measurements reported in patent US20250268830A1, “SUSTAINED RELEASE INJECTABLE PHARMACEUTICAL FORMULATION OF LEVOTHYROXINE AND PROCESS FOR PREPARATION THEREOF” (PHARMATHEN S.A., priority 2021, published 2025).

Columns and labels:
[1] = solubility of the API in MeOH; type: physicochemical; details: 20° C.
Experimental: The solubility at 20° C. of the API in MeOH was determined as follows: approximately 50 mg Levothyroxine sodium were weighed in a vial. Methanol was gradually added until the solution became clear.

[2] = LVX solubility in DCM/MeOH 10/3 with PLGA (evaluation of maximum theoretical drug loading); type: physicochemical
Experimental: A quantity of approximately 0.25 g of polymer and varying quantities of LVX corresponding to theoretical drug loading values 1%, 2%, 3% and 4% were weighed in four vials. A DCM/MeOH mixture at a ratio of 10/3 (to ensure the polymer is always dissolved) was gradually added in each vial. The respective PLGA (PURASORB PDLG 5002A) concentrations, % LVX content and LVX solubility were evaluated and are presented in the table below.

## N[C@@H](Cc1cc(I)c(Oc2cc(I)c(O)c(I)c2)c(I)c1)C(=O)O [Levothyroxine sodium]
[1]
  solubility in MeOH: 3.41 % mass LVX/mass of MeOH
[2]; DCM/MeOH 10/3 with PLGA
  ratio LVX/(DCM+MeOH) at which levothyroxine is dissolved: below 0.1%
[2]; Vial 1, 1.0% TDL, DCM+MeOH 2.5 g, 0.11% LVX in mix, 13.01% PLGA in DCM
  LVX Solubility: Insoluble
[2]; Vial 1, 1.0% TDL, DCM+MeOH 3.3 g, 0.08% LVX in mix, 9.99% PLGA in DCM
  LVX Solubility: Almost Clear
[2]; Vial 1, 1.0% TDL, DCM+MeOH 4.3 g, 0.06% LVX in mix, 7.63% PLGA in DCM
  LVX Solubility: Clear
[2]; Vial 1, 1.0% TDL, DCM+MeOH 5.5 g, 0.05% LVX in mix, 5.92% PLGA in DCM
  LVX Solubility: Clear
[2]; Vial 2, 2.0% TDL, DCM+MeOH 2.6 g, 0.20% LVX in mix, 12.58% PLGA in DCM
  LVX Solubility: Slurry
[2]; Vial 2, 2.0% TDL, DCM+MeOH 3.3 g, 0.16% LVX in mix, 10.05% PLGA in DCM
  LVX Solubility: Sluny
[2]; Vial 2, 2.0% TDL, DCM+MeOH 4.3 g, 0.12% LVX in mix, 7.69% PLGA in DCM
  LVX Solubility: Less Slurry
[2]; Vial 2, 2.0% TDL, DCM+MeOH 5.6 g, 0.09% LVX in mix, 5.92% PLGA in DCM
  LVX Solubility: Almost Clear
[2]; Vial 3, 3.0% TDL, DCM+MeOH 2.6 g, 0.30% LVX in mix, 12.69% PLGA in DCM
  LVX Solubility: Shary
[2]; Vial 3, 3.0% TDL, DCM+MeOH 3.3 g, 0.24% LVX in mix, 9.97% PLGA in DCM
  LVX Solubility: Slurry
[2]; Vial 3, 3.0% TDL, DCM+MeOH 4.2 g, 0.18% LVX in mix, 7.70% PLGA in DCM
  LVX Solubility: Less Shury
[2]; Vial 3, 3.0% TDL, DCM+MeOH 5.5 g, 0.14% LVX in mix, 5.95% PLGA in DCM
  LVX Solubility: Less Slurry
[2]; Vial 3, 3.0% TDL, DCM+MeOH 7.7 g, 0.10% LVX in mix, 4.25% PLGA in DCM
  LVX Solubility: Almost Clear
[2]; Vial 3, 3.0% TDL, DCM+MeOH 9.6 g, 0.08% LVX in mix, 3.39% PLGA in DCM
  LVX Solubility: Almost Clear
[2]; Vial 3, 3.0% TDL, DCM+MeOH 12.3 g, 0.06% LVX in mix, 2.65% PLGA in DCM
  LVX Solubility: Clear
[2]; Vial 4, 4.0% TDL, DCM+MeOH 2.6 g, 0.39% LVX in mix, 12.33% PLGA in DCM
  LVX Solubility: Slurry
[2]; Vial 4, 4.0% TDL, DCM+MeOH 3.3 g, 0.31% LVX in mix, 9.82% PLGA in DCM
  LVX Solubility: Shary
[2]; Vial 4, 4.0% TDL, DCM+MeOH 4.3 g, 0.24% LVX in mix, 7.56% PLGA in DCM
  LVX Solubility: Slurry
[2]; Vial 4, 4.0% TDL, DCM+MeOH 5.6 g, 0.19% LVX in mix, 5.87% PLGA in DCM
  LVX Solubility: Less Slurry
